ChEMBL document CHEMBL4043245, “Synthesis, characterization, and cellular localization of a fluorescent probe of the antimalarial 8-aminoquinoline primaquine” (Bioorg Med Chem Lett, 2017)

How the values were obtained:
[1] = Drug uptake in food vacuole of asexual blood stage of Plasmodium falciparum D10-ACPLEADER-GFP schizont forms infected in human erythrocytes at 150 uM after 30 to 45 mins by mitotracker Red dye based fluorescence microscopic analysis; type: ADME, cell-based
[2] = Drug uptake in nucleus of asexual blood stage of Plasmodium falciparum D10-ACPLEADER-GFP schizont forms infected in human erythrocytes at 150 uM after 30 to 45 mins by mitotracker Red dye based fluorescence microscopic analysis; type: ADME, cell-based
Plasmodium falciparum [3] = assay: Antimalarial activity against asexual blood stage of chloroquine-resistant Plasmodium falciparum W2 infected in human erythrocytes by [3H]-Hypoxanthine uptake assay; type: functional, cell-based
[4] = Drug uptake in mitochondria of asexual blood stage of Plasmodium falciparum D10-ACPLEADER-GFP trophozoite forms infected in human erythrocytes at 150 uM after 30 to 45 mins by mitotracker Red dye based fluorescence microscopic analysis; type: ADME, cell-based
[5] = Drug uptake in cytoplasm of asexual blood stage of Plasmodium falciparum D10-ACPLEADER-GFP trophozoite forms infected in human erythrocytes at 150 uM after 30 to 45 mins by mitotracker Red dye based fluorescence microscopic analysis; type: ADME, cell-based
[6] = Drug uptake in apicoplast of asexual blood stage of Plasmodium falciparum D10-ACPLEADER-GFP ring forms infected in human erythrocytes at 150 uM after 30 to 45 mins by mitotracker Red dye based fluorescence microscopic analysis; type: ADME, cell-based
[7] = Drug uptake in nucleus of asexual blood stage of Plasmodium falciparum D10-ACPLEADER-GFP ring forms infected in human erythrocytes at 150 uM after 30 to 45 mins by mitotracker Red dye based fluorescence microscopic analysis; type: ADME, cell-based
[8] = Drug uptake in relict plastid of asexual blood stage of Plasmodium falciparum D10-ACPLEADER-GFP trophozoite forms infected in human erythrocytes at 150 uM after 30 to 45 mins by mitotracker Red dye based fluorescence microscopic analysis; type: ADME, cell-based
[9] = Drug uptake in mitochondria of Plasmodium falciparum D10-ACPLEADER-GFP gametocyte stage 5 infected in human erythrocytes at 150 uM after 30 to 45 mins by mitotracker Red dye based fluorescence microscopic analysis; type: ADME, cell-based
[10] = Drug uptake in mitochondria of asexual blood stage of Plasmodium falciparum D10-ACPLEADER-GFP schizont forms infected in human erythrocytes at 150 uM after 30 to 45 mins by mitotracker Red dye based fluorescence microscopic analysis; type: ADME, cell-based
[11] = Drug uptake in relict plastid of asexual blood stage of Plasmodium falciparum D10-ACPLEADER-GFP ring forms infected in human erythrocytes at 150 uM after 30 to 45 mins by mitotracker Red dye based fluorescence microscopic analysis; type: ADME, cell-based
[12] = Drug uptake in human HepG2 cells infected with liver stage chloroquine-susceptible Plasmodium berghei 1052 C11 by mitotracker red dye based fluorescence microscopic analysis; type: ADME, cell-based
[13] = Drug uptake in apicoplast of asexual blood stage of Plasmodium falciparum D10-ACPLEADER-GFP schizont forms infected in human erythrocytes at 150 uM after 30 to 45 mins by mitotracker Red dye based fluorescence microscopic analysis; type: ADME, cell-based
[14] = Drug uptake in food vacuole of asexual blood stage of Plasmodium falciparum D10-ACPLEADER-GFP trophozoite forms infected in human erythrocytes at 150 uM after 30 to 45 mins by mitotracker Red dye based fluorescence microscopic analysis; type: ADME, cell-based
[15] = Drug uptake in cytoplasm of Plasmodium falciparum D10-ACPLEADER-GFP gametocyte stage 5 infected in human erythrocytes at 150 uM after 30 to 45 mins by mitotracker Red dye based fluorescence microscopic analysis; type: ADME, cell-based
[16] = Drug uptake in cytoplasm of asexual blood stage of Plasmodium falciparum D10-ACPLEADER-GFP trophozoite forms infected in human erythrocytes at 150 uM after 30 to 45 mins in presence of primaquine by mitotracker Red dye based fluorescence microscopic analysis; type: ADME, cell-based
[17] = Drug uptake in food vacuole of Plasmodium falciparum D10-ACPLEADER-GFP gametocyte stage 4 infected in human erythrocytes at 150 uM after 30 to 45 mins by mitotracker Red dye based fluorescence microscopic analysis; type: ADME, cell-based
[18] = Drug uptake in cytoplasm of asexual blood stage of Plasmodium falciparum D10-ACPLEADER-GFP ring forms infected in human erythrocytes at 150 uM after 30 to 45 mins by mitotracker Red dye based fluorescence microscopic analysis; type: ADME, cell-based
[19] = Drug uptake in food vacuole of Plasmodium falciparum D10-ACPLEADER-GFP gametocyte stage 5 infected in human erythrocytes at 150 uM after 30 to 45 mins by mitotracker Red dye based fluorescence microscopic analysis; type: ADME, cell-based
[20] = Drug uptake in cytoplasm of Plasmodium falciparum D10-ACPLEADER-GFP gametocyte stage 4 infected in human erythrocytes at 150 uM after 30 to 45 mins by mitotracker Red dye based fluorescence microscopic analysis; type: ADME, cell-based
Plasmodium falciparum [21] = assay: Antimalarial activity against asexual blood stage of chloroquine-susceptible Plasmodium falciparum D6 infected in human erythrocytes by [3H]-Hypoxanthine uptake assay; type: functional, cell-based
[22] = Drug uptake in relict plastid of asexual blood stage of Plasmodium falciparum D10-ACPLEADER-GFP schizont forms infected in human erythrocytes at 150 uM after 30 to 45 mins by mitotracker Red dye based fluorescence microscopic analysis; type: ADME, cell-based
Plasmodium berghei = assay: Antiplasmodial activity against liver stage chloroquine-susceptible Plasmodium berghei 1052 C11 infected in HepG2 cells after 44 hrs by TopCount microplate luminescence assay; type: functional, cell-based; details: 1052 C11, HepG2, 44 h
Erythrocyte = assay: Drug uptake in human erythrocytes after 30 to 45 mins by mitotracker red dye based flow cytometric method; type: ADME, cell-based
HepG2 = assay: Cytotoxicity against human HepG2 cells after 24 hrs by MTS assay; type: cell-based; details: HepG2, 24 h
[23] = Drug uptake in cytoplasm of asexual blood stage of Plasmodium falciparum D10-ACPLEADER-GFP schizont forms infected in human erythrocytes at 150 uM after 30 to 45 mins by mitotracker Red dye based fluorescence microscopic analysis; type: ADME, cell-based
[24] = Drug uptake in mitochondria of asexual blood stage of Plasmodium falciparum D10-ACPLEADER-GFP ring forms infected in human erythrocytes at 150 uM after 30 to 45 mins by mitotracker Red dye based fluorescence microscopic analysis; type: ADME, cell-based
[25] = Drug uptake in apicoplast of asexual blood stage of Plasmodium falciparum D10-ACPLEADER-GFP trophozoite forms infected in human erythrocytes at 150 uM after 30 to 45 mins by mitotracker Red dye based fluorescence microscopic analysis; type: ADME, cell-based
[26] = Drug uptake in nucleus of asexual blood stage of Plasmodium falciparum D10-ACPLEADER-GFP trophozoite forms infected in human erythrocytes at 150 uM after 30 to 45 mins by mitotracker Red dye based fluorescence microscopic analysis; type: ADME, cell-based
Plasmodium falciparum [27] = assay: Antimalarial activity against asexual blood stage of chloroquine-susceptible Plasmodium falciparum 3D7 infected in human erythrocytes by [3H]-Hypoxanthine uptake assay; type: functional, cell-based
[28] = Drug uptake in food vacuole of asexual blood stage of Plasmodium falciparum D10-ACPLEADER-GFP ring forms infected in human erythrocytes at 150 uM after 30 to 45 mins by mitotracker Red dye based fluorescence microscopic analysis; type: ADME, cell-based
[29] = Drug uptake in mitochondria of Plasmodium falciparum D10-ACPLEADER-GFP gametocyte stage 4 infected in human erythrocytes at 150 uM after 30 to 45 mins by mitotracker Red dye based fluorescence microscopic analysis; type: ADME, cell-based

Compound: COc1cc(NC(C)CCCNC(=O)CCCc2cc(=O)oc3cc(O)ccc23)c2ncccc2c1 (stereo not drawn)
- Drug uptake [1]: Not Active
- Drug uptake [2]: Not Active
- IC50 (Plasmodium falciparum [3]): 3.52 µM
- Drug uptake [4]: Not Active
- Drug uptake [5]: Active
- Drug uptake [6]: Not Active
- Drug uptake [7]: Not Active
- Drug uptake [8]: Not Active
- Drug uptake [9]: Not Active
- Drug uptake [10]: Not Active
- Drug uptake [11]: Not Active
- Drug uptake [12]: Not Active
- Drug uptake [13]: Not Active
- Drug uptake [14]: Not Active
- Drug uptake [15]: Active
- Drug uptake [16]: Not Active
- Drug uptake [17]: Not Active
- Drug uptake [18]: Active
- Drug uptake [19]: Not Active
- Drug uptake [20]: Active
- IC50 (Plasmodium falciparum [21]): 4.47 µM
- Drug uptake [22]: Not Active
- IC50 (Plasmodium berghei): 20.7 µM
- Drug uptake (Erythrocyte): Not Active
- IC50 (HepG2): 44.5 µM
- Drug uptake [23]: Active
- Drug uptake [24]: Not Active
- Drug uptake [25]: Not Active
- Drug uptake [26]: Not Active
- IC50 (Plasmodium falciparum [27]): 10.5 µM
- Drug uptake [28]: Not Active
- Drug uptake [29]: Not Active

Compound: O=c1ccc2ccccc2o1 [COUMARIN]
- Drug uptake (Erythrocyte): Not Active

Compound: COc1cc(NC(C)CCCN)c2ncccc2c1 (stereo not drawn) [PRIMAQUINE]
- IC50 (Plasmodium falciparum [3]): 2.35 µM
- IC50 (Plasmodium falciparum [21]): 5.16 µM
- IC50 (Plasmodium berghei): 17.2 µM
- IC50 (HepG2): 101 µM
- IC50 (Plasmodium falciparum [27]): 5.77 µM
